What was measured:
Type in all cases: cell-based
[1] = tested on: SDMA (PRMT5 activity) in HAP1 MTAP-intact cell line; test: SDMA in-cell western assay, HAP1 MTAP-intact; details: SDMA in-cell western, HAP1 MTAP-intact cells, 24 hours compound incubation
[2] = tested on: SDMA (PRMT5 activity) in HAP1 MTAP-deleted cell line; test: SDMA in-cell western assay, HAP1 MTAP-deleted; details: for IC50 / IC90: SDMA in-cell western, HAP1 MTAP-deleted cells, 24 hours compound incubation; for Hap1 MTAP intact/deleted ratio: ratio of SDMA IC50 in HAP1 MTAP-intact to HAP1 MTAP-deleted cell line
[3] = tested on: HAP1 MTAP-deleted cell line; test: Viability assay (CellTiter-Glo), HAP1 MTAP-deleted; details: HAP1 MTAP-deleted cells, 7 days
Summary of the method: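 HAP1 MTAP-deleted and MTAP-intact cells seeded, then dosed next day (n=3, 0.2% DMSO) and grown 7 days. Viability by CellTiter-Glo luminescence, expressed as % of DMSO control per cell line.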

In the case of `CCc1cc(NC(=O)C(=O)N2C[C@@H](C)CC[C@@H]2c2ccc3cn(CCN(C)C)nc3c2)cnc1N` [Compound 38, N-(6-amino-5-ethyl-3-pyridyl)-2-oxo-2-[(2R,5S)-2-[2-[2-(dimethylamino)ethyl]indazol-6-yl]-5-methyl-1-piperidyl]acetamide], the IC50 ([1]; Homo sapiens, HAP1, 24 h) is reported as over 50 nM, the IC50 ([2]; Homo sapiens) is reported as under 5 nM and the IC90 ([2]; Homo sapiens) is reported as under 75 nM. The “Hap1 MTAP intact/deleted ratio” value [2] was “B (“B” indicates an IC50 ratio greater than or equal to 15 fold but lower than 30 fold)” and the IC50 ([3]; Homo sapiens, 168 h) was under 100 nM.
Molecule `COc1ncc(NC(=O)C(=O)N2C[C@@H](C)CC[C@@H]2c2ccc3sc([C@@H]4C[C@@H](C)CN(C)C4)nc3c2)cc1C(N)=O` (racemic) [Compound 94, 5-(2-((2R,5S)-2-(2-(1,5-dimethylpiperidin-3-yl)benzo[d]thiazol-5-yl)-5-methylpiperidin-1-yl)-2-oxoacetamido)-2-methoxynicotinamide] has an IC50 ([1]; Homo sapiens, HAP1, 24 h) of over 50 nM, an IC50 ([2]; Homo sapiens) of under 5 nM and an IC90 ([2]; Homo sapiens) of under 75 nM. For the same molecule, the “Hap1 MTAP intact/deleted ratio” value [2] was “A (“A” indicates an IC50 ratio greater than or equal to 30 fold)” and the IC50 ([3]; Homo sapiens, 168 h) was under 100 nM.
`CCc1cc(NC(=O)C(=O)N2C[C@@H](C)CC[C@@H]2c2ccc3sc(CC(C)(C)N(C)C)nc3c2)cnc1N` [Compound 89, N-(6-amino-5-ethylpyridin-3-yl)-2-((2R,5S)-2-(2-(2-(dimethylamino)-2-methylpropyl)benzo[d]thiazol-5-yl)-5-methylpiperidin-1-yl)-2-oxoacetamide] showed an IC50 ([1]; Homo sapiens, HAP1, 24 h) of over 50 nM, an IC50 ([2]; Homo sapiens) of under 5 nM and an IC90 ([2]; Homo sapiens) of under 75 nM. For the same molecule, the “Hap1 MTAP intact/deleted ratio” value [2] was “A (“A” indicates an IC50 ratio greater than or equal to 30 fold)” and the IC50 ([3]; Homo sapiens, 168 h) was under 100 nM.
For `COc1ncc(NC(=O)C(=O)N2C[C@@H](C)CC[C@@H]2c2ccc3sc(C45CCN(CC4)C5)nc3c2)cc1C(N)=O` [Compound 81, 5-(2-((2R,5S)-2-(2-(1-azabicyclo[2.2.1]heptan-4-yl)benzo[d]thiazol-5-yl)-5-methylpiperidin-1-yl)-2-oxoacetamido)-2-methoxynicotinamide], the IC50 ([1]; Homo sapiens, HAP1, 24 h) was over 50 nM, the IC50 ([2]; Homo sapiens) was under 5 nM and the IC90 ([2]; Homo sapiens) was under 75 nM. The “Hap1 MTAP intact/deleted ratio” value [2] was “A (“A” indicates an IC50 ratio greater than or equal to 30 fold)” and the IC50 ([3]; Homo sapiens, 168 h) was under 100 nM.
With `CCc1cc(NC(=O)C(=O)N2C[C@@H](C)CC[C@@H]2c2ccc3sc([C@@H]4CCN(C)CC4(C)C)nc3c2)cnc1N` [Compound 79, N-(6-amino-5-ethylpyridin-3-yl)-2-((5S)-5-methyl-2-(2-(1,3,3-trimethylpiperidin-4-yl)benzo[d]thiazol-5-yl)piperidin-1-yl)-2-oxoacetamide] the IC50 ([1]; Homo sapiens, HAP1, 24 h) was 5 to 50 nM, the IC50 ([2]; Homo sapiens) was under 5 nM and the IC90 ([2]; Homo sapiens) was under 75 nM. The “Hap1 MTAP intact/deleted ratio” value [2] was “C (“C” indicates an IC50 ratio of less than 15 fold)” and the IC50 ([3]; Homo sapiens, 168 h) was under 100 nM.
With `COc1ncc(NC(=O)C(=O)N2C[C@@H](C)CC[C@@H]2c2ccc3sc([C@@H]4CCN(C)CC4(C)C)nc3c2)cc1C(N)=O` (single isomer, unassigned) [Compound 3] the IC50 ([1]; Homo sapiens, HAP1, 24 h) was over 50 nM, the IC50 ([2]; Homo sapiens) was under 5 nM and the IC90 ([2]; Homo sapiens) was under 75 nM. For the same molecule, the “Hap1 MTAP intact/deleted ratio” value [2] was “B (“B” indicates an IC50 ratio greater than or equal to 15 fold but lower than 30 fold)” and the IC50 ([3]; Homo sapiens, 168 h) was under 100 nM.
With `COc1ncc(NC(=O)C(=O)N2C[C@@H](C)CC[C@@H]2c2ccc3sc(CC4CCN(C)CC4)nc3c2)cc1C(N)=O` [Compound 20, 2-methoxy-5-(2-((2R,5S)-5-methyl-2-(2-((1-methylpiperidin-4-yl)methyl)benzo[d]thiazol-5-yl)piperidin-1-yl)-2-oxoacetamido)nicotinamide] the IC50 ([1]; Homo sapiens, HAP1, 24 h) was over 50 nM, the IC50 ([2]; Homo sapiens) was under 5 nM and the IC90 ([2]; Homo sapiens) was under 75 nM. For the same molecule, the “Hap1 MTAP intact/deleted ratio” value [2] was “A (“A” indicates an IC50 ratio greater than or equal to 30 fold)” and the IC50 ([3]; Homo sapiens, 168 h) was under 100 nM.
`CCc1cc(NC(=O)C(=O)N2C[C@@H](C)CC[C@@H]2c2ccc3sc(C4CC(C5CN(C)C5)C4)nc3c2)cnc1N` (stereo partly drawn) [Compound 100, N-(6-amino-5-ethylpyridin-3-yl)-2-((2R,5S)-5-methyl-2-(2-(3-(1-methylazetidin-3-yl)cyclobutyl)benzo[d]thiazol-5-yl)piperidin-1-yl)-2-oxoacetamide] gave an IC50 ([1]; Homo sapiens, HAP1, 24 h) of 5 to 50 nM, an IC50 ([2]; Homo sapiens) of under 5 nM and an IC90 ([2]; Homo sapiens) of under 75 nM. For the same molecule, the “Hap1 MTAP intact/deleted ratio” value [2] was “B (“B” indicates an IC50 ratio greater than or equal to 15 fold but lower than 30 fold)” and the IC50 ([3]; Homo sapiens, 168 h) was under 100 nM.
Work on `COc1ncc(NC(=O)C(=O)N2C[C@@H](C)CC[C@@H]2c2ccc3sc(C4CCNCC4)nc3c2)cc1C(N)=O` [Compound 52, 2-methoxy-5-(2-((2R,5S)-5-methyl-2-(2-(piperidin-4-yl)benzo[d]thiazol-5-yl)piperidin-1-yl)-2-oxoacetamido)nicotinamide] yielded an IC50 ([1]; Homo sapiens, HAP1, 24 h) of over 50 nM, an IC50 ([2]; Homo sapiens) of 5 to 50 nM and an IC90 ([2]; Homo sapiens) of 75 to 125 nM. The “Hap1 MTAP intact/deleted ratio” value [2] was “B (“B” indicates an IC50 ratio greater than or equal to 15 fold but lower than 30 fold)” and the IC50 ([3]; Homo sapiens, 168 h) was 100 to 1000 nM.
With `CCc1cc(NC(=O)C(=O)N2C[C@@H](C)CC[C@@H]2c2ccc3sc(CC(C)N4CCCC4)nc3c2)cnc1N` (mixture of isomers) [Compound 116, N-(6-amino-5-ethylpyridin-3-yl)-2-((2R,5S)-5-methyl-2-(2-(2-(pyrrolidin-1-yl)propyl)benzo[d]thiazol-5-yl)piperidin-1-yl)-2-oxoacetamide] the IC50 ([1]; Homo sapiens, HAP1, 24 h) was over 50 nM, the IC50 ([2]; Homo sapiens) was under 5 nM and the IC90 ([2]; Homo sapiens) was under 75 nM. For the same molecule, the “Hap1 MTAP intact/deleted ratio” value [2] was “A (“A” indicates an IC50 ratio greater than or equal to 30 fold)” and the IC50 ([3]; Homo sapiens, 168 h) was under 100 nM.
In the case of `COc1ncc(NC(=O)C(=O)N2C[C@@H](C)CC[C@@H]2c2ccc3sc([C@H]4CN(C)C(C)(C)C4)nc3c2)cc1C(N)=O` [Compound 65, 2-methoxy-5-[[2-oxo-2-[(2R,5S)-5-methyl-2-[2-[(3R)-1,5,5-trimethylpyrrolidin-3-yl]-1,3-benzothiazol-5-yl]-1-piperidyl]acetyl]amino]pyridine-3-carboxamide], the IC50 ([1]; Homo sapiens, HAP1, 24 h) is reported as over 50 nM, the IC50 ([2]; Homo sapiens) is reported as under 5 nM and the IC90 ([2]; Homo sapiens) is reported as under 75 nM. For the same molecule, the “Hap1 MTAP intact/deleted ratio” value [2] was “B (“B” indicates an IC50 ratio greater than or equal to 15 fold but lower than 30 fold)” and the IC50 ([3]; Homo sapiens, 168 h) was under 100 nM.
In the case of `CCc1cc(NC(=O)C(=O)N2C[C@@H](C)CC[C@@H]2c2ccc3cn(C4CCN(C)C(C)(C)C4)nc3c2)cnc1N` (single isomer, unassigned) [Compound 48], the IC50 ([1]; Homo sapiens, HAP1, 24 h) is reported as 5 to 50 nM, the IC50 ([2]; Homo sapiens) is reported as under 5 nM and the IC90 ([2]; Homo sapiens) is reported as under 75 nM. For the same molecule, the “Hap1 MTAP intact/deleted ratio” value [2] was “C (“C” indicates an IC50 ratio of less than 15 fold)” and the IC50 ([3]; Homo sapiens, 168 h) was under 100 nM.
In the case of `COc1ncc(NC(=O)C(=O)N2C[C@@H](C)CC[C@@H]2c2ccc3sc(CC(C)(C)N(C)C)nc3c2)cc1C(N)=O` [Compound 120, 5-(2-((2R,5S)-2-(2-(2-(dimethylamino)-2-methylpropyl)benzo[d]thiazol-5-yl)-5-methylpiperidin-1-yl)-2-oxoacetamido)-2-methoxynicotinamide], the IC50 ([1]; Homo sapiens, HAP1, 24 h) is reported as over 50 nM, the IC50 ([2]; Homo sapiens) is reported as under 5 nM and the IC90 ([2]; Homo sapiens) is reported as under 75 nM. The “Hap1 MTAP intact/deleted ratio” value [2] was “A (“A” indicates an IC50 ratio greater than or equal to 30 fold)” and the IC50 ([3]; Homo sapiens, 168 h) was under 100 nM.
`COc1ncc(NC(=O)C(=O)N2C[C@@H](C)CC[C@@H]2c2ccc3sc([C@@H]4CCN(C)C[C@H]4OC)nc3c2)cc1C(N)=O` (single isomer, unassigned) [Compound 68] gave an IC50 ([1]; Homo sapiens, HAP1, 24 h) of over 50 nM, an IC50 ([2]; Homo sapiens) of under 5 nM and an IC90 ([2]; Homo sapiens) of under 75 nM. The “Hap1 MTAP intact/deleted ratio” value [2] was “A (“A” indicates an IC50 ratio greater than or equal to 30 fold)” and the IC50 ([3]; Homo sapiens, 168 h) was under 100 nM.
For `CCc1cc(NC(=O)C(=O)N2C[C@@H](C)CC[C@@H]2c2ccc3sc([C@@H]4CCN(C)C[C@H]4OC)nc3c2)cnc1N` (single isomer, unassigned) [Compound 101], the IC50 ([1]; Homo sapiens, HAP1, 24 h) was 5 to 50 nM, the IC50 ([2]; Homo sapiens) was under 5 nM and the IC90 ([2]; Homo sapiens) was under 75 nM. The “Hap1 MTAP intact/deleted ratio” value [2] was “B (“B” indicates an IC50 ratio greater than or equal to 15 fold but lower than 30 fold)” and the IC50 ([3]; Homo sapiens, 168 h) was under 100 nM.
With `C[C@H]1CC[C@H](c2ccc3sc(C4CCN(C)C(C)(C)C4)nc3c2)N(C(=O)C(=O)Nc2cnc(N)c(C3COC3)c2)C1` (single isomer, unassigned) [Compound 1] the IC50 [1] was 5 to 50 nM, the IC50 [2] was under 5 nM and the IC90 [2] was under 75 nM. For the same molecule, the “Hap1 MTAP intact/deleted ratio” value [2] was “C (“C” indicates an IC50 ratio of less than 15 fold)” and the IC50 [3] was under 100 nM.
For `COc1ncc(NC(=O)C(=O)N2C[C@@H](C)CC[C@@H]2c2ccc3sc([C@@H](C)CN4CCCC4)nc3c2)cc1C(N)=O` [Compound 62, 2-methoxy-5-[[2-oxo-2-[(2R,5S)-5-methyl-2-[2-[(1S)-1-methyl-2-pyrrolidin-1-yl-ethyl]-1,3-benzothiazol-5-yl]-1-piperidyl]acetyl]amino]pyridine-3-carboxamide], the IC50 ([1]; Homo sapiens, HAP1, 24 h) was over 50 nM, the IC50 ([2]; Homo sapiens) was under 5 nM and the IC90 ([2]; Homo sapiens) was under 75 nM. For the same molecule, the “Hap1 MTAP intact/deleted ratio” value [2] was “A (“A” indicates an IC50 ratio greater than or equal to 30 fold)” and the IC50 ([3]; Homo sapiens, 168 h) was under 100 nM.
Work on `CCc1cc(NC(=O)C(=O)N2C[C@@H](C)CC[C@@H]2c2ccc3sc(C4CN(C)CCN4C)nc3c2)cnc1N` (mixture of isomers) [Compound 70, N-(6-amino-5-ethylpyridin-3-yl)-2-((2R,5S)-2-(2-(1,4-dimethylpiperazin-2-yl)benzo[d]thiazol-5-yl)-5-methylpiperidin-1-yl)-2-oxoacetamide] yielded an IC50 ([1]; Homo sapiens, HAP1, 24 h) of over 50 nM, an IC50 ([2]; Homo sapiens) of 5 to 50 nM and an IC90 ([2]; Homo sapiens) of under 75 nM. The “Hap1 MTAP intact/deleted ratio” value [2] was “B (“B” indicates an IC50 ratio greater than or equal to 15 fold but lower than 30 fold)” and the IC50 ([3]; Homo sapiens, 168 h) was under 100 nM.
`CCc1cc(NC(=O)C(=O)N2C[C@@H](C)CC[C@@H]2c2ccc3oc(C4CCN(C)CC4)nc3c2)cnc1N` [Compound 53, N-(6-amino-5-ethylpyridin-3-yl)-2-((2R,5S)-5-methyl-2-(2-(1-methylpiperidin-4-yl)benzo[d]oxazol-5-yl)piperidin-1-yl)-2-oxoacetamide] gave an IC50 ([1]; Homo sapiens) of over 50 nM, an IC50 ([2]; Homo sapiens) of under 5 nM and an IC90 ([2]; Homo sapiens) of under 75 nM. For the same molecule, the “Hap1 MTAP intact/deleted ratio” value [2] was “A (“A” indicates an IC50 ratio greater than or equal to 30 fold)” and the IC50 ([3]; Homo sapiens, 168 h) was under 100 nM.

— patent US20250171432A1, “COMPOUNDS AND METHODS OF USE” (Tango Therapeutics, Inc., priority 2022, published 2025)
